Assays:
Maus = settings: cited from earlier work
[1] = tested on: Chenopodium album ("CHEAL"); experiment: Field trial, Swiss Mittelland, percent weed control from plant counts (Tabelle II); type: in vivo, Chenopodium album L.; settings: four weeks after treatment
Text: Die Tabelle II zeigt Resultate von Versuchen, die im Freien, nämlich im schweizerischen Mittelland auf mittelschwerem sandigem Lehmboden durchgeführt wurden. Die hier wiedergegebenen Werte sind Prozent-Zahlen, die errechnet wurden aufgrund der Formel [formula] wobei AK die Individuenzahl der jeweiligen Unkraut-Art pro Flächeneinheit der unbehandelten Kontrollparzelle und AB die entsprechende Individuenzahl pro Flächeneinheit der jeweiligen behandelten Partelle bedeutet. Die Ermittlung der Wirkung erfolgte vier Wochen nach Behandlung.

[2] = tested on: 7 repräsentative Unkraut- arten; experiment: Greenhouse pot test, spray directly after sowing, EWRC rating, weeds (Tabelle I); type: in vivo; settings: EWRC scale, 1 = völlige Abtötung, 9 = völlige Wirkungslosigkeit
Text: (§1) Der Tabelle 1 liegen orientierende Versuche zugrunde, welche im klimatisierten Gewächshaus durchgeführt wurden, wobei 7 repräsentative Unkraut- arten und als Beispiel einer Kulturpflanze Raps benützt wurden. Unmittelbar nach dem Beschicken der Kunststofftöpfe mit dem Saatgut wurde (abge-
(§2) sehen von der unbehandelt bleibenden Kontrollserie) je eine Serie behandelt durch Aufsprühen einer wässrigen Suspension bzw. Emulsion, welche als Herbizid entweder nur den Aktivstoff I oder II in unterschiedlicher Menge oder beide Stoffe kombiniert in unterschiedlichen Mengen und Mengenverhältnissen enthielt. Die eingesetzten Aktivstoff-Mengen wurden umgerechnet auf die Aufwändmengen in Gramm Wirkstoff pro Hektar. Die Effekte wurden innert vier Wochen mehrmals begutachtet und protokolliert.
(§3) Die in der Tabelle I enthaltenen Wirkungsangaben wurden nach der Bonitierungs-Skala des European Weed Research Council (EWRC) bestimmt, wobei hier sowohl für Unkräuter wie auch für Kulturpflanze der Wert 1 der völligen Abtötung und der Wert 9 der völligen Wirkungslosigkeit zugeordnet wurde: […]

Raps = experiment: Greenhouse pot test, spray directly after sowing, crop tolerance (Tabelle I); type: in vivo
Text: as §1, §2, §3

Ratte = settings: cited from earlier work

Structure (SMILES) | LD 50 p.o. (Maus) [mg/kg] | Wirkung auf Chenopodium album ([1]; 4000 g/ha Aktivstoff I alone) [%] | Durchschnittswert (EWRC) gegenüber den 7 Unkraut-Arten ([2]; 4000 g/ha Aktivstoff I alone) | Schädigung Raps (Raps; 2000 g/ha Aktivstoff I alone) | LD 50 p.o. (Ratte) [mg/kg] | Wirkung auf Chenopodium album ([1]; 1000 g/ha Aktivstoff II alone) [%] | Durchschnittswert (EWRC) gegenüber den 7 Unkraut-Arten ([2]; 1000 g/ha Aktivstoff II alone) | Schädigung Raps (Raps; 500 g/ha Aktivstoff II alone)
CCN(CC)C(=O)SCc1ccccc1Cl [Aktivstoff I, S-(2-Chlorbenzyl)-N,N-diethyl-thiocarbamat] | ~1850 | 87 | 3,5 | deutlich geschädigt |  |  |  | 
Cc1cccc(C)c1N(Cn1cccn1)C(=O)CCl [Aktivstoff II, N-(2,6-Dimethylphenyl)-N-(1-pyrazolylmethyl)-chloracetamid] |  |  |  |  | 2150 | 91 | 5,5 | deutlich geschädigt
